Reference: patent publication US10487045B2, “Adamantane derivative and use thereof” (TOHOKU UNIVERSITY, priority 2016, dated 2019)

Target: T1, Kir6.2 channel (Mus musculus, UniProt Q61743)
T1 construct: expressed in transfected cells; host or cells: Neuro2A (N2A) cells, transient transfection with pcDNA3.1-Kir6.2 (gift of Dr. Toru Ishizuka, Tohoku University)
T1 sequence (Q61743 1-390): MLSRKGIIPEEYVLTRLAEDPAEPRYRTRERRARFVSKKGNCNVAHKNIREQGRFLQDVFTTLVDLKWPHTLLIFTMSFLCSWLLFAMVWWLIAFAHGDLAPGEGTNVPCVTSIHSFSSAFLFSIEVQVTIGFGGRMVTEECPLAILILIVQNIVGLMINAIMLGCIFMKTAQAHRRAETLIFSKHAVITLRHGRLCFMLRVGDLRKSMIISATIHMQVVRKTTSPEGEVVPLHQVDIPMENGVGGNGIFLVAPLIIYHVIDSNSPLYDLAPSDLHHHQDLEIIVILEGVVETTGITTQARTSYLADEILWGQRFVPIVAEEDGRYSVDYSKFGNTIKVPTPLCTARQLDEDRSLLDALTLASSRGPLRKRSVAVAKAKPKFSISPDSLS
Assay: Patch-clamp measurement of outward potassium current in Kir6.2 channel-overexpressing cells
Type: cell-based
Settings: 10 nM TP-014, Kir6.2 channel-overexpressing cells, membrane potential changed toward a plus side
Experimental: Using Kir6.2 channel-overexpressing cells obtained in Test Example 1, potassium current flowing outside from the cells was measured by an ordinary patch-clamp method. ATP-sensitive potassium channel (Kir6.2 channel) was localized in the cell membrane of the nerve cells. If the channel is inhibited and closed, the threshold of the nerve cell membrane rises to produce a state analogous to the state where an action potential is temporarily generated, with the result that potassium current flows out from cells outside and, in place, calcium current flows into the cells from outside. […] This was confirmed by applying immunoblotting (the same conditions as in Test Example 1 were employed except that anti-Kir6.2 channel antibody, n=5) with an anti-Kir6.2 channel antibody (prepared based on a customary method) to Kir6.2 channel-overexpressing cells (prepared by the aforementioned method).

- outward potassium current: suppressed
SMILES: O=C(N[C@@H](c1ccccc1)[C@H]1[C@H]2C[C@@H]3C[C@](Cl)(C2)C[C@@]1(OC(=O)C(F)(F)F)C3)C(F)(F)F [TP-014, (1S,2R,3S,5S,7S)-5-chloro-2-((R)-phenyl(2,2,2-trifluoroacetamido)methyl)adamantan-1-yl 2,2,2-trifluoroacetate]
